Among the data in PubChem BioAssay (NCI) are TGI and GI50 values, retold here.

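Following 48 hours of exposure in 96-well plates, responses at five concentrations were used to interpolate endpoints linearly. GI50 is the concentration that inhibits growth by half. TGI is the concentration that stops growth completely.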 A value given as a limit tells only on which side of the number the result lay.

Assay in all cases: NCI tumour cell line growth inhibition, 48 h
Assay [1] deals with COLO 205 colon.
Assay [2] deals with MALME-3M melanoma.
The subject of assay [3] is OVCAR-3 ovarian.
The subject of assay [4] is U251 CNS.
Assay [5] relates to UACC-62 melanoma.
Assay [6] concerns A549 NSCLC.
Assay [7] has as its system BT-549 breast.
The test system of assay [8] is HS 578T breast.
Assay [9] deals with KM12 colon.
Assay [10] relates to MCF7 breast.

As to `COc1cc2c(cc1OC)C(Cl)C(c1ccc(Cl)cc1)=C2Cl` (stereo not given), the TGI in [1] was 32.2 µM; in assay [2], 56.8 µM; in assay [3], 30.1 µM; in assay [4] it was 26.6 µM; in [5], 40.4 µM.

Regarding `O=C(c1cc(Br)ccc1O)c1cc(Br)ccc1O`, the TGI was 32 µM in assay [6]; 33.9 µM in assay [7]; 33.4 µM in [1]; over 100 µM in assay [8]; 30.8 µM in assay [9]; 31.6 µM in [2]. The TGI was found to be 31.3 µM in assay [10], 29.2 µM in assay [3], 28.8 µM in assay [4] and 25.8 µM in [5].

Turning to `COc1ccc(CNc2nc(NCc3ccc(OC)cc3)nc(NC(C)C)n2)cc1`, the TGI in assay [6] is 33.7 µM; in assay [1], 33.9 µM; in [8] it was over 100 µM; in assay [9], 76.3 µM; in assay [2], 22.8 µM; in assay [10] it was 5.6 µM. Also, the TGI in [3] was 10.3 µM; in [4], over 100 µM; in assay [5], 31.1 µM.

Consider `c1ccc2c[n+](CCCCCCCCCC[n+]3ccc4ccccc4c3)ccc2c1`, for which the TGI in assay [6], in assay [7], in assay [1], in assay [8], in assay [9] and in assay [2] was over 10 µM throughout. In addition, the TGI in assay [10], in [3], in assay [4] and in assay [5] was over 10 µM throughout.

For the molecule `O=C(CSCC(=O)N/N=C/c1cccc(OCc2ccccc2)c1)N/N=C/c1cccc(OCc2ccccc2)c1`, the TGI in assay [6], in [7], in [1], in assay [8], in assay [9] and in assay [2] was over 100 µM each time. Also, the TGI in assay [10], in [3], in assay [4] and in assay [5] was over 100 µM throughout. In assay [1], the GI50 was 37.5 µM.

As to `Cc1c2ccnc(-c3ccccc3)c2cc2c1[nH]c1ccccc12`, the TGI in [6] came to 10.3 µM; in assay [1], 6.1 µM; in assay [9], 26 µM; in [2], 9.31 µM; in assay [10] it was 8.59 µM; in assay [3] it was 8.99 µM. The TGI in [4] was 7.76 µM; in assay [5], 5.48 µM.

`C[C@@H]1CC[C@H]2C(COC/C=C/COCC3=C(C(F)(F)F)O[C@@H]4O[C@@]5(C)CC[C@H]6[C@H](C)CC[C@@H]3[C@@]46OO5)=C(C(F)(F)F)O[C@@H]3O[C@@]4(C)CC[C@@H]1[C@]32OO4`: the GI50 in assay [6] is under 0.0138 µM; in [7], 0.0644 µM; in assay [1], under 0.0174 µM; in assay [8], 0.0429 µM; in assay [9] it was under 0.01 µM; in assay [2], under 0.01 µM. In addition, the GI50 was 0.028 µM in assay [10], under 0.0114 µM in [3], under 0.01 µM in assay [4] and 0.0781 µM in assay [5]. The TGI in [6] was over 50.1 µM; in [7] it was over 100 µM; in [8] it was over 100 µM; in assay [9] it was 0.0328 µM; in assay [2], 0.0445 µM; in [10], over 58.3 µM. Further, the TGI in assay [3] is 0.336 µM; in assay [4], 0.179 µM; in assay [5] it was over 100 µM.

Consider `C[n+]1cccc(/C=C/c2ccc3cccc(O)c3n2)c1`, for which the TGI in assay [6] is over 100 µM; in assay [7], over 100 µM; in assay [1], over 100 µM; in assay [8], over 100 µM; in [9], over 100 µM; in assay [2] it was 93.5 µM. The TGI in [10], in assay [3], in [4] and in assay [5] was over 100 µM in each case.

As to `CCOC(=O)N1c2ccccc2S(=O)(=O)c2ccccc21`, the TGI in assay [6], in assay [7], in assay [1], in [8], in [9] and in assay [10] was over 100 µM in each case. The TGI in assay [3], in assay [4] and in assay [5] was over 100 µM throughout.

On to `Cc1ccc(C)c(/C(=N\N=C(N)N)C2CC2)c1`, for which the TGI in assay [6] was over 100 µM; in [7] it was 95.3 µM; in [1], over 100 µM; in [8], over 100 µM; in [9], over 100 µM; in [2], over 100 µM. Further, the TGI in [10] is over 100 µM; in assay [3], over 100 µM; in [4], 36.2 µM; in assay [5], over 100 µM.

As to `CCOC(=O)c1c2c(c(O)c3ccccc3c(O)n(-c3ccc(C)cc3)c1C)C(=O)C=CC2=O`, the TGI in assay [6] is over 100 µM; in [7], 71.2 µM; in [1] it was 48.5 µM; in assay [8], 66 µM; in [9], 81.7 µM; in assay [2], 37.4 µM. Further, the TGI was 55.7 µM in [10], 35.2 µM in assay [3], 52.9 µM in assay [4] and 71.7 µM in assay [5].

As for `Cc1ncc(CO)c(CN)c1O`, the TGI in assay [6], in [7], in assay [1], in assay [8], in [9] and in assay [2] was over 100 µM throughout. Moreover, the TGI in assay [10], in assay [3], in assay [4] and in [5] was over 100 µM throughout.

Consider `CN(C)CCNC(=O)c1cccc2nc3c4ccccc4c4ccccc4c3nc12`, for which the TGI in [6] worked out at 12.2 µM; in assay [7] it was 6.25 µM; in [1], 19.3 µM; in assay [9], 3.06 µM; in assay [2], 3.6 µM; in [10], 3.47 µM. Besides, the figures for the TGI in assay [3], in [4] and in assay [5] were 7 µM, 4.56 µM and 5.51 µM, respectively.

`N=C(N)c1ccc(-c2ccc(-c3ccc(Cl)cn3)s2)cc1`: the GI50 in assay [8] is 2.05 µM; in assay [2], 1.68 µM; in assay [5] it was 1.84 µM. Besides, the TGI worked out at 5.35 µM in assay [8], 3.14 µM in [2] and 3.38 µM in assay [5].

Consider `O=C(O)c1ccccn1`, for which the TGI in assay [6], in assay [7], in [1], in [8], in assay [9] and in assay [10] was over 100 µM in each case. Further, the TGI in assay [3], in [4] and in assay [5] was over 100 µM each time.

For `O=C(CC1(O)C(=O)Nc2ccc(Br)cc21)c1ccc(C(=O)NCC2CCC3(CC2)OOC2(CCCCC2)OO3)cc1` (stereo not given), the GI50 in assay [6] is 4.3 µM; in assay [7], 7.28 µM; in assay [1], 3.74 µM; in assay [8], 9.26 µM; in assay [9], 3.08 µM; in assay [2], 2.47 µM. The GI50 was 3.05 µM in [10], 2.13 µM in assay [3], 2.24 µM in assay [4] and 5.77 µM in assay [5]. Further, the TGI in assay [6] was over 100 µM; in [7], 32.7 µM; in assay [1] it was 25.5 µM; in assay [8], over 100 µM; in assay [9], 31.2 µM; in [2], 6.63 µM. Also, the TGI in assay [10] was found to be 26.5 µM; in assay [3], 10.4 µM; in assay [4] it was 6.51 µM; in assay [5], 29.2 µM.

On to `CN(C)c1ccc(C2CC(=O)C(C#N)=C(c3ccccc3)NN2C)cc1` (stereo not given), for which the TGI in assay [6], in assay [9], in [2] and in [4] was over 100 µM in each case.

As to `CC(C)(C)C1CCC2(CC1)CCN(CCCN1CCOCC1)CC2`, the TGI in [6] was over 88.8 µM; in assay [7] it was over 100 µM; in [1] it was 32.7 µM; in assay [8], over 100 µM; in assay [9] it was over 100 µM; in assay [2], 39.4 µM. Also, the TGI in assay [10] is over 100 µM; in assay [3], over 100 µM; in assay [4], over 53.3 µM; in [5], 25 µM.

On to `CC(C)CNc1nc(N)[nH]c(=O)c1NC=O`, for which the TGI in [6], in assay [7], in assay [1], in assay [8], in assay [9] and in assay [2] was over 100 µM throughout. In addition, the TGI in assay [10], in assay [3], in assay [4] and in assay [5] was over 100 µM in each case.

Regarding `COc1cnc2c(c1)C(=O)c1c-2n(CCCN2CCNCC2)c(=O)c2cc(Cl)ccc12`, the GI50 in assay [1] was 0.783 µM; in [9], 0.55 µM; in assay [3] it was 1.43 µM. Further, the TGI was 2.41 µM in assay [1], 2.04 µM in assay [9] and 2.83 µM in [3].

With `CN(C)[C@@H]1C(=O)C(C(=O)NCNCCCC(=O)O)=C(O)[C@@]2(O)C(=O)C3=C(O)c4c(O)cccc4[C@@](C)(O)[C@H]3C[C@@H]12`, the TGI in assay [6], in [1], in [9], in assay [3], in [4] and in [5] was over 100 µM each time.

Regarding `COc1cc2ccc1-c1cc(ccc1O)CC1c3cc4c(cc3CCN1C)Oc1c(OC)cc3c(c1O4)C(C2)N(C)CC3` (stereo not given), the TGI came to 3.41 µM in [6]; 3.32 µM in [9]; 3.48 µM in assay [2]; 3.93 µM in assay [3]; 3.07 µM in assay [4]; 3.44 µM in assay [5].

As to `Oc1cc(O)cc(/C=C/c2ccc(O)c(O)c2)c1`, the TGI in [6] was 53.4 µM; in assay [1] it was over 62.1 µM; in assay [9], 11.2 µM; in assay [2], over 100 µM; in assay [10], over 56.1 µM; in assay [3] it was over 100 µM. For the same molecule, the TGI in [4] turned out to be 42.8 µM; in [5] it was 15 µM.

Turning to `NCS(=O)(=O)O`, the TGI in assay [6], in [7], in [1], in assay [8], in assay [9] and in assay [2] was over 100 µM each time. Besides, the TGI in [10], in assay [3], in [4] and in assay [5] was over 100 µM throughout.
